In the kinase profiling compilation of Christmann-Franck et al. (2016):
Values joined by “and” are separate entries in the source; they are usually repeats but may differ in a detail not shown here. Equal values may be shown once.

Experiments:
Assay in all cases: Caliper, Mobility shift assay off-chip
[1] = target: RPS6KA4 KD1 KD2 (human) (UniProt O75676)
[2] = target: FLT1 (human) (UniProt P17948)
[3] = target: MELK (human) (UniProt Q14680)
[4] = target: PRKCG (human) (UniProt P05129)
[5] = target: CDK3 (human) (UniProt Q00526)
[6] = target: NUAK2 (human) (UniProt Q9H093)
Chain of NUAK2 (human) (Q9H093 whole entry, looked up): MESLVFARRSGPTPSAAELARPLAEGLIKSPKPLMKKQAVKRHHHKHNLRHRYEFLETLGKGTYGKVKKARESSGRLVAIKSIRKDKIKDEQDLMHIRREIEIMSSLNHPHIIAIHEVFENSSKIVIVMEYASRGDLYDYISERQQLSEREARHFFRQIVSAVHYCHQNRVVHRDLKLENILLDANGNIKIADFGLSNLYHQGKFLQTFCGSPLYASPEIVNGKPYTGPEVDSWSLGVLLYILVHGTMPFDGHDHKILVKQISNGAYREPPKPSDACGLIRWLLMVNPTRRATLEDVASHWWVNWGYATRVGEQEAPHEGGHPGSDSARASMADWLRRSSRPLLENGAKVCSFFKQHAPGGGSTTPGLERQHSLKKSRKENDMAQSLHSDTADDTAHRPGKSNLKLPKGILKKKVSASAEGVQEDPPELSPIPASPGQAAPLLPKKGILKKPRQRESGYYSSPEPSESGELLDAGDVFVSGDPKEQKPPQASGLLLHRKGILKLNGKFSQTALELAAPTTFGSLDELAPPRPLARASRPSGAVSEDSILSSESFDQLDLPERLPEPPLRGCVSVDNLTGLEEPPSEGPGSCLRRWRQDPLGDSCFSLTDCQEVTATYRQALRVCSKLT

[7] = target: ALK NPM1 (human) (UniProt P06748+Q9UM73)
[8] = target: SPHK2 (human) (UniProt Q9NRA0)
[9] = target: SRPK2 (human) (UniProt P78362)
Chain of SRPK2 (human) (P78362 whole entry, looked up): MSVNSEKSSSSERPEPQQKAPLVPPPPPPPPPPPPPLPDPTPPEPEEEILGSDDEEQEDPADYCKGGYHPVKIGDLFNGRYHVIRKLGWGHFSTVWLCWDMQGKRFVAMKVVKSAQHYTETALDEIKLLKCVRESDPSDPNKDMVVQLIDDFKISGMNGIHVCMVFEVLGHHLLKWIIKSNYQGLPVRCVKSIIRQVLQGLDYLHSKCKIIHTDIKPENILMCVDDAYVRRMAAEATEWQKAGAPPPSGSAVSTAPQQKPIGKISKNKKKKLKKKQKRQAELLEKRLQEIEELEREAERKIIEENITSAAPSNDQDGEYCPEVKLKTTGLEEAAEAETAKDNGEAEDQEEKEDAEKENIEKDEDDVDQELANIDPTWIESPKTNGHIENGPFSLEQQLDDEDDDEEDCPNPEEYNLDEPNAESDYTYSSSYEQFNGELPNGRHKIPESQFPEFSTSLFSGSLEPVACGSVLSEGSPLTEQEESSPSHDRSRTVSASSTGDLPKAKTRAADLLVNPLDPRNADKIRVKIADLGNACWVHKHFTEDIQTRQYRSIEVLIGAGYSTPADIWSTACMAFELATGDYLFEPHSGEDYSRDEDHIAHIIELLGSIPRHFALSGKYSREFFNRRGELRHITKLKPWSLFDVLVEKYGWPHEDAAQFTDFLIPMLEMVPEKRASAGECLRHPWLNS

[10] = target: WNK3 (human) (UniProt Q9BYP7)
[11] = target: PRKCB1 (human) (UniProt P05771)
Chain of PRKCB1 (human) (P05771 whole entry, looked up): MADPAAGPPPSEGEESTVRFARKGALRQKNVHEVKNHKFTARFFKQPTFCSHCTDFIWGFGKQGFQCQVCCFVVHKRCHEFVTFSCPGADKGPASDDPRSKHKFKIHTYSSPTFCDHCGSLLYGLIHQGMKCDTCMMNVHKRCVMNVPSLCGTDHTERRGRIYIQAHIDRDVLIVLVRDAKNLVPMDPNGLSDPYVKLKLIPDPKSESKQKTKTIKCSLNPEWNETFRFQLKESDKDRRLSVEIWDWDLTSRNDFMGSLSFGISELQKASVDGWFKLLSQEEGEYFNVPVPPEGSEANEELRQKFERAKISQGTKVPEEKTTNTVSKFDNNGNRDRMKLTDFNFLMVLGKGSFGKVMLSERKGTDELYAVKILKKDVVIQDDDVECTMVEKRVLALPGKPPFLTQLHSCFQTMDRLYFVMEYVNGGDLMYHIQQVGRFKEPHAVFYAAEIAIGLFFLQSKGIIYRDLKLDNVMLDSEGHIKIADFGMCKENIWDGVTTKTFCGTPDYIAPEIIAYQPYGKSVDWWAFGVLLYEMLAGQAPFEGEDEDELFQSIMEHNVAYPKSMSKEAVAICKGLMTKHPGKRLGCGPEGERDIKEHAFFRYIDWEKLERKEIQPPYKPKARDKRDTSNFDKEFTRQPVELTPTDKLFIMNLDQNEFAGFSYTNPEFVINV

[12] = target: GSK3B (human) (UniProt P49841)
[13] = target: CSF1R (human) (UniProt P07333)
[14] = target: EPHA6 (human) (UniProt Q9UF33)
[15] = target: INSRR (human) (UniProt P14616)
[16] = target: MAPK10 (human) (UniProt P53779)
[17] = target: MAPK14 (human) (UniProt Q16539)
[18] = target: PRKCQ (human) (UniProt Q04759)
[19] = target: BMX (human) (UniProt P51813)
[20] = target: CDK5 (human) (UniProt Q00535)
[21] = target: CHUK (human) (UniProt O15111)
[22] = target: PHKG2 (human) (UniProt P15735)
[23] = target: STK38L (human) (UniProt Q9Y2H1)
[24] = target: JAK2 JH1 JH2 (human) (UniProt O60674)
[25] = target: KDR (human) (UniProt P35968)
[26] = target: FGFR4 (human) (UniProt P22455)
[27] = target: PDGFRB (human) (UniProt P09619)
[28] = target: RET (human) (UniProt P07949)
[29] = target: TXK (human) (UniProt P42681)
[30] = target: MAPKAPK2 (human) (UniProt P49137)
[31] = target: ALK (human) (UniProt Q9UM73)
[32] = target: PRKD1 (human) (UniProt Q15139)
Chain of PRKD1 (human) (Q15139 whole entry, looked up): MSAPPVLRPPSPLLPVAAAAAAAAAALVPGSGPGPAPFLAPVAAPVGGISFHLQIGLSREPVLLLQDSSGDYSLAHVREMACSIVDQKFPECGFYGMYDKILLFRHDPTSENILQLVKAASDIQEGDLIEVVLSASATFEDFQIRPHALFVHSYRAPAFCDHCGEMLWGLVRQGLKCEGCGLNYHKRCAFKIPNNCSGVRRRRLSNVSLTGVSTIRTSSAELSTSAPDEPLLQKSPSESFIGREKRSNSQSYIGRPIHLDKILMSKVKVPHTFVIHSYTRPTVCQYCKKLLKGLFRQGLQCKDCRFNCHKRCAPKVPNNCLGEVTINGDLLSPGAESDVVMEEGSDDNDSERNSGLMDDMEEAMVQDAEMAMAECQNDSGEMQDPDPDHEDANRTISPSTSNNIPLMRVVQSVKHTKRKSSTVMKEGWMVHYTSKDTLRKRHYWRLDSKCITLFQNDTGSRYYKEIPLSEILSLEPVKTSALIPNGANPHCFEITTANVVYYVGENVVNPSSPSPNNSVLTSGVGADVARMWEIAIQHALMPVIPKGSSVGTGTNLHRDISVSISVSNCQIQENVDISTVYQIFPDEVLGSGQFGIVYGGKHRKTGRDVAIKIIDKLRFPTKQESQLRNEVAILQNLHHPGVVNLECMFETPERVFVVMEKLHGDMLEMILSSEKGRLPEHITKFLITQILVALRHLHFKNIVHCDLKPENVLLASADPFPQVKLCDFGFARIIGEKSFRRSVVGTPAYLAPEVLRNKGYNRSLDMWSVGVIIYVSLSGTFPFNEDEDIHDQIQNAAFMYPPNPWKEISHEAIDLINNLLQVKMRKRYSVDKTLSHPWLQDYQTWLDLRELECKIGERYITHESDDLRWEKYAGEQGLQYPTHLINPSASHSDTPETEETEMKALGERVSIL

[33] = target: CDK7 (human) (UniProt P50613)
[34] = target: ZAP70 (human) (UniProt P43403)

Chain of FLT1 (human) (P17948 whole entry, looked up): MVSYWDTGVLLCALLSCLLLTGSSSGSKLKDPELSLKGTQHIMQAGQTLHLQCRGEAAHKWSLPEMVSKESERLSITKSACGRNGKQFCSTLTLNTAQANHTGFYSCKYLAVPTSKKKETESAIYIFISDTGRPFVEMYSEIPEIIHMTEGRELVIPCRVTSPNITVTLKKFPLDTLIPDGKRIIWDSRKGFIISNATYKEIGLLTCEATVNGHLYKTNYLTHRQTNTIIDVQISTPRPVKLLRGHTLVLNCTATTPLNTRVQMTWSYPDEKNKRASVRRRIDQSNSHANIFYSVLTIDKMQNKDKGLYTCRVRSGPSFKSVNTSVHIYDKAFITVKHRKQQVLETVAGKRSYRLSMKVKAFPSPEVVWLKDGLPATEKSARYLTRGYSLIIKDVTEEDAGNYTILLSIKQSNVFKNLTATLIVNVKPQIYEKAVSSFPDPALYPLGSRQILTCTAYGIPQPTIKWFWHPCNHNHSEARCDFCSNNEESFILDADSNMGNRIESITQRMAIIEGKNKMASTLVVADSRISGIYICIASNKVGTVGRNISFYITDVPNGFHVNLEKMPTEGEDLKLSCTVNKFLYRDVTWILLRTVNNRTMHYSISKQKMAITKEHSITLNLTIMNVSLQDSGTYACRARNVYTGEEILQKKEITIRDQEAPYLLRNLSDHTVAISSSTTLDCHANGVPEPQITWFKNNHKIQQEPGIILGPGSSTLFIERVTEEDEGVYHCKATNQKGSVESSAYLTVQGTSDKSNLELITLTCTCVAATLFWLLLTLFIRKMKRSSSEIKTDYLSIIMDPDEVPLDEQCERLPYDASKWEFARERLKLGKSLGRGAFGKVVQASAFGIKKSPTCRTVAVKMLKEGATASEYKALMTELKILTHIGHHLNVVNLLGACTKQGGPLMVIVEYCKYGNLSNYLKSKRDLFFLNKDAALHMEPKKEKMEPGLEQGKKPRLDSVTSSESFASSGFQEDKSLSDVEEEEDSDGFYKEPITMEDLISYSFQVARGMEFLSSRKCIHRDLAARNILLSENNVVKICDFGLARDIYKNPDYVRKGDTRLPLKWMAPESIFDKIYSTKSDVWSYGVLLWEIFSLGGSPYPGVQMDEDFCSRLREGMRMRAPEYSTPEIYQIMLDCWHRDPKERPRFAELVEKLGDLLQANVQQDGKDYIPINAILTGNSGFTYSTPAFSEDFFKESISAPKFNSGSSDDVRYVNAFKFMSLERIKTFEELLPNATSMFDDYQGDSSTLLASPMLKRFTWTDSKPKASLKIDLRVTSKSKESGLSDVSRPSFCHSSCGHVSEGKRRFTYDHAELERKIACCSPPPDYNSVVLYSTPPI

- inhibition ([1]; compound 0.02 µM): -4.9%
- inhibition ([1]; compound 0.2 µM): 2.6%
- inhibition ([2]; compound 0.02 µM): 91.6%
- inhibition ([2]; compound 0.2 µM): 102%
- inhibition ([3]; compound 0.02 µM): 6.6%
- inhibition ([3]; compound 0.2 µM): 10%
- inhibition ([4]; compound 0.02 µM): 3.8%
- inhibition ([4]; compound 0.2 µM): 4.1%
- inhibition ([5]; compound 0.02 µM): -3.3%
- inhibition ([5]; compound 0.2 µM): -1.1%
- inhibition ([6]; compound 0.02 µM): 8.9%
- inhibition ([6]; compound 0.2 µM): -17.5%
- inhibition ([7]; compound 0.02 µM): 3.6%
- inhibition ([7]; compound 0.2 µM): 5.1%
- inhibition ([8]; compound 0.02 µM): 6.4%
- inhibition ([8]; compound 0.2 µM): 2.8%
- inhibition ([9]; compound 0.02 µM): -7.9%
- inhibition ([9]; compound 0.2 µM): -5.3%
- inhibition ([10]; compound 0.02 µM): 0.8%
- inhibition ([10]; compound 0.2 µM): -1.1%
- inhibition ([11]; compound 0.02 µM): 5.1% and 8.3%
- inhibition ([11]; compound 0.2 µM): 7.3% and 7.5%
- inhibition ([12]; compound 0.02 µM): 0.7%
- inhibition ([12]; compound 0.2 µM): 0.8%
- inhibition ([13]; compound 0.02 µM): 18.4%
- inhibition ([13]; compound 0.2 µM): 36.8%
- inhibition ([14]; compound 0.02 µM): 37.1%
- inhibition ([14]; compound 0.2 µM): 95.9%
- inhibition ([15]; compound 0.02 µM): -0.3%
- inhibition ([15]; compound 0.2 µM): 13.3%
- inhibition ([16]; compound 0.02 µM): -2.9%
- inhibition ([16]; compound 0.2 µM): -6.5%
- inhibition ([17]; compound 0.02 µM): -4.9%
- inhibition ([17]; compound 0.2 µM): -4.9%
- inhibition ([18]; compound 0.02 µM): 8.9%
- inhibition ([18]; compound 0.2 µM): 3.7%
- inhibition ([19]; compound 0.02 µM): 8.4%
- inhibition ([19]; compound 0.2 µM): 7.1%
- inhibition ([20]; compound 0.02 µM): 0.8%
- inhibition ([20]; compound 0.2 µM): -4.2%
- inhibition ([21]; compound 0.02 µM): 5.3%
- inhibition ([21]; compound 0.2 µM): 5.3%
- inhibition ([22]; compound 0.02 µM): -2.9%
- inhibition ([22]; compound 0.2 µM): -3.3%
- inhibition ([23]; compound 0.02 µM): 8.9%
- inhibition ([23]; compound 0.2 µM): -0.2%
- inhibition ([24]; compound 0.02 µM): 4.5%
- inhibition ([24]; compound 0.2 µM): 4.5%
- inhibition ([25]; compound 0.02 µM): 96.3%
- inhibition ([25]; compound 0.2 µM): 101%
- inhibition ([26]; compound 0.02 µM): 3.2%
- inhibition ([26]; compound 0.2 µM): 22.3%
- inhibition ([27]; compound 0.02 µM): 17.9%
- inhibition ([27]; compound 0.2 µM): 61.8%
- inhibition ([28]; compound 0.02 µM): 76.8%
- inhibition ([28]; compound 0.2 µM): 98.7%
- inhibition ([29]; compound 0.02 µM): -0.7%
- inhibition ([29]; compound 0.2 µM): -0.1%
- inhibition ([30]; compound 0.02 µM): 6.1%
- inhibition ([30]; compound 0.2 µM): -1.5%
- inhibition ([31]; compound 0.02 µM): 5.8%
- inhibition ([31]; compound 0.2 µM): 10.6%
- inhibition ([32]; compound 0.02 µM): -1.3%
- inhibition ([32]; compound 0.2 µM): -2.2%
- inhibition ([33]; compound 0.02 µM): -5.4%
- inhibition ([33]; compound 0.2 µM): -4.5%
- inhibition ([34]; compound 0.02 µM): 3.1%
- inhibition ([34]; compound 0.2 µM): 3.4%
Structure (SMILES): COc1cc2c(Oc3ccc4[nH]c(C)cc4c3F)ncnc2cc1OCCCN1CCCC1
